IC50 data for 30 molecules are collected here from patent publication US10654833B2, “ASK1 isoindolin-1-one inhibitors and methods of use thereof” (Hepatikos Therapeutics, LLC, priority 2018, dated 2020).

The target in this assay is recombinant human ASK1 protein (Homo sapiens (Human), UniProt Q99683). In words: ASK1 kinase activity inhibition assay (radiometric 33P incorporation into MBP). The assay is classed as biochemical. The settings on record: Table 3; 20 μM MBP, 10 μM 33P-ATP. On the procedure: ASK1 Kinase Activity Inhibition Assay
Sequence of recombinant human ASK1 protein (Q99683 whole entry): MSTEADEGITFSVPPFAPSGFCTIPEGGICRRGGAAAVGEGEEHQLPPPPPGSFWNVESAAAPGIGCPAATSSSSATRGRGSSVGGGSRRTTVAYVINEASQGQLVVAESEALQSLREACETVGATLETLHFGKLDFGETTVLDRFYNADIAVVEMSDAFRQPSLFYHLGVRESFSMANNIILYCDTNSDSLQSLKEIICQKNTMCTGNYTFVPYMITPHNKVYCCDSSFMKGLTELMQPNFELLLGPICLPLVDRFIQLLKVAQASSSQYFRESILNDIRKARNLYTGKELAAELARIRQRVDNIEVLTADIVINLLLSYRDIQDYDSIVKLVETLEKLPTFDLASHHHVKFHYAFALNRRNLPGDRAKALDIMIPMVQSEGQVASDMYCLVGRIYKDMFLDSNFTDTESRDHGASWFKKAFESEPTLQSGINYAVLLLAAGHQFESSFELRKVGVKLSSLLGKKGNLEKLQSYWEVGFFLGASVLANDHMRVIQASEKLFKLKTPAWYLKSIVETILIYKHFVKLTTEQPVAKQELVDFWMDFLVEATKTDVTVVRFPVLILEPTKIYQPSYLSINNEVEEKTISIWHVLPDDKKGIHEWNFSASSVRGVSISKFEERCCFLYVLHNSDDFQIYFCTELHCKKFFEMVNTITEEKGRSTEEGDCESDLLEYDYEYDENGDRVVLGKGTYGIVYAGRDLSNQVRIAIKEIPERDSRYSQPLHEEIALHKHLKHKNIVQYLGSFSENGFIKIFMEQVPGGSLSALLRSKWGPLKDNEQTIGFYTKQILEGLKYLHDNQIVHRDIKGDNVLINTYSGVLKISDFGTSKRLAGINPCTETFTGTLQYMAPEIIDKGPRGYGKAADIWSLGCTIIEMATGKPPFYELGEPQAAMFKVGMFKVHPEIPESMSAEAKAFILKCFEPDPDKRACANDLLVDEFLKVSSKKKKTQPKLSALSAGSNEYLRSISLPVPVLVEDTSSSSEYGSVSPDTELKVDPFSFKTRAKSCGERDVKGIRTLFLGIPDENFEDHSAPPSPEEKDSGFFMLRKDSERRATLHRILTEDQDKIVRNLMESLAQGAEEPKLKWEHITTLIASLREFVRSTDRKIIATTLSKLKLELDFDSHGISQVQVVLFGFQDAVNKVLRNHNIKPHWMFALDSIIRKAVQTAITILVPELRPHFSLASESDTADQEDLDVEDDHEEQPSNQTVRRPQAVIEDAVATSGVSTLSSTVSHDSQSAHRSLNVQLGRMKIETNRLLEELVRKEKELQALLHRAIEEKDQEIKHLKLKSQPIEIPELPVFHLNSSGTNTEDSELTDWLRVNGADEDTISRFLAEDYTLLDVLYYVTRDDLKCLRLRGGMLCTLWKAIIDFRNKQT
Inhibition of ASK1 kinase activity was determined radiometrically using 33P substrate incorporation (Reaction Biology Corp., Malvern, Pa.). Briefly, recombinant human ASK1 protein, 20 μM substrate (myelin basic protein (MBP)), and compound (diluted from DMSO stock to give 1% final DMSO) were incubated in Base Reaction buffer (20 mM Hepes (pH 7.5), 10 mM MgCl2, 1 mM EGTA, 0.02% Brij35, 0.02 mg/mL BSA, 0.1 mM Na3VO4, 2 mM DTT, 1% DMSO) at room temperature for 20 minutes. The reaction was initiated by addition of 10 μM 33P-ATP (specific activity […]). The reaction was then allowed to proceed for 2 hours at room temperature. Upon reaction termination, the mixture was spotted on P81 exchange paper and kinase activity by incorporation of 33P into MBP substrate was detected by filter-binding method.
For “6-(2-(6-(4-Isopropyl-4H-1,2,4-triazol-3-yl)pyridin-2-yl)-3-oxoisoindolin-5-yl)pyridazine-4-carboxylic Acid [Compound 119]”, the IC50 stood at 5.2 nM.
For `CC(C)n1cnnc1-c1cccc(N2Cc3ccc(-c4ccc(O)c(C(=O)O)c4)cc3C2=O)n1` [Compound 64, 2-Hydroxy-5-(2-(6-(4-isopropyl-4H-1,2,4-triazol-3-yl)pyridin-2-yl)-3-oxoisoindolin-5-yl)benzoic Acid] the value was 7 nM; for `CC(C)n1cnnc1-c1cccc(N2Cc3ccc(-c4ccc5c(C(=O)O)cnn5c4)cc3C2=O)n1` [Compound 122, 6-(2-(6-(4-Isopropyl-4H-1,2,4-triazol-3-yl)pyridin-2-yl)-3-oxoisoindolin-5-yl)pyrazolo[1,5-a]pyridine-3-carboxylic Acid], 3.9 nM.
For `COC(=O)c1ccc(F)c(-c2ccc3c(c2)C(=O)N(c2cccc(-c4nncn4C(C)C)n2)C3)c1` [Compound 100, Methyl 4-fluoro-3-(2-(6-(4-isopropyl-4H-1,2,4-triazol-3-yl)pyridin-2-yl)-3-oxoisoindolin-5-yl)benzoate] the value was 6.57 nM; for `COc1cc(N)c(-c2ccc3c(c2)C(=O)N(c2cccc(-c4nncn4C(C)C)n2)C3)cc1C(=O)O` [Compound 66, 4-Amino-5-(2-(6-(4-isopropyl-4H-1,2,4-triazol-3-yl)pyridin-2-yl)-3-oxoisoindolin-5-yl)-2-methoxybenzoic Acid], 8.9 nM; for `CC(C)n1cnnc1-c1cccc(N2Cc3ccc(-c4ccc(C(=O)O)c(S(C)(=O)=O)c4)cc3C2=O)n1` [Compound 77, 4-(2-(6-(4-Isopropyl-4H-1,2,4-triazol-3-yl)pyridin-2-yl)-3-oxoisoindolin-5-yl)-2-(methylsulfonyl)benzoic Acid], 2.8 nM.
Regarding `CC(C)n1cnnc1-c1cccc(N2Cc3ccc(-c4ccn5ncc(C(=O)O)c5n4)cc3C2=O)n1` [Compound 124, 5-(2-(6-(4-Isopropyl-4H-1,2,4-triazol-3-yl)pyridin-2-yl)-3-oxoisoindolin-5-yl)pyrazolo[1,5-a]pyrimidine-3-carboxylic Acid], the IC50 came out at 8.3 nM.
The result for `CC(C)n1cnnc1-c1cccc(N2Cc3ccc(-c4ccc(C(=O)O)c(F)c4)cc3C2=O)n1` [Compound 67, 2-Fluoro-4-(2-(6-(4-isopropyl-4H-1,2,4-triazol-3-yl)pyridin-2-yl)-3-oxoisoindolin-5-yl)benzoic Acid] reads 5.4 nM; that for `CC(C)n1cnnc1-c1cccc(N2Cc3ccc(-c4ccc(Cl)cc4C(=O)O)cc3C2=O)n1` [Compound 65, 5-Chloro-2-(2-(6-(4-isopropyl-4H-1,2,4-triazol-3-yl)pyridin-2-yl)-3-oxoisoindolin-5-yl)benzoic Acid], 34.4 nM; that for `Cc1c(F)cc(C(=O)O)cc1-c1ccc2c(c1)C(=O)N(c1cccc(-c3nncn3C(C)C)n1)C2` [Compound 98, 3-Fluoro-5-(2-(6-(4-isopropyl-4H-1,2,4-triazol-3-yl)pyridin-2-yl)-3-oxoisoindolin-5-yl)-4-methylbenzoic Acid], 4.9 nM.
As for `COC(=O)C(C)(C)c1ccc(-c2ccc3c(c2)C(=O)N(c2cccc(-c4nncn4C(C)C)n2)C3)cc1` [Compound 88, Methyl 2-(4-(2-(6-(4-isopropyl-4H-1,2,4-triazol-3-yl)pyridin-2-yl)-3-oxoisoindolin-5-yl)phenyl)-2-methylpropanoate], the IC50 turned out to be 4.9 nM.
For `CC(C)n1cnnc1-c1cccc(N2Cc3ccc(-c4ccc(CCC(=O)O)cc4)cc3C2=O)n1` [Compound 90, 3-(4-(2-(6-(4-Isopropyl-4H-1,2,4-triazol-3-yl)pyridin-2-yl)-3-oxoisoindolin-5-yl)phenyl)propanoic Acid] the value was 4.4 nM; for `CC(C)n1cnnc1-c1cccc(N2Cc3ccc(-c4cc(C(=O)O)ccc4CO)cc3C2=O)n1` [Compound 59, 4-(Hydroxymethyl)-3-(2-(6-(4-isopropyl-4H-1,2,4-triazol-3-yl)pyridin-2-yl)-3-oxoisoindolin-5-yl)benzoic Acid], 5.3 nM.
The result for `CC(C)n1cnnc1-c1cccc(N2Cc3ccc(-c4ccc(C(=O)O)c(CO)c4)cc3C2=O)n1` [Compound 83, 2-(Hydroxymethyl)-4-(2-(6-(4-isopropyl-4H-1,2,4-triazol-3-yl)pyridin-2-yl)-3-oxoisoindolin-5-yl)benzoic Acid] reads 6.2 nM; that for `CC(C)n1cnnc1-c1cccc(N2Cc3ccc([C@H]4CC[C@@H](C(=O)O)CC4)cc3C2=O)n1` [Compound 127, cis-4-(2-(6-(4-Isopropyl-4H-1,2,4-triazol-3-yl)pyridin-2-yl)-3-oxoisoindolin-5-yl)cyclohexane-1-carboxylic acid], 14.6 nM.
Regarding `CC(C)n1cnnc1-c1cccc(N2Cc3ccc(-c4cc(F)cc(C(=O)O)c4F)cc3C2=O)n1` [Compound 97, 2,5-Difluoro-3-(2-(6-(4-isopropyl-4H-1,2,4-triazol-3-yl)pyridin-2-yl)-3-oxoisoindolin-5-yl) Benzoic Acid], the IC50 is 4.7 nM.
As for `Cc1cc(C(=O)O)cc(-c2ccc3c(c2)C(=O)N(c2cccc(-c4nncn4C(C)C)n2)C3)n1` [Compound 115, 2-(2-(6-(4-Isopropyl-4H-1,2,4-triazol-3-yl)pyridin-2-yl)-3-oxoisoindolin-5-yl)-6-methylisonicotinic Acid], the IC50 amounted to 6.5 nM.
Regarding `O=C(O)C1CCCN(c2ccc3c(c2)C(=O)N(c2cccc(-c4nncn4C4CC4)n2)C3)C1` (stereo not drawn) [Compound 131, 1-(2-(6-(4-Cyclopropyl-4H-1,2,4-triazol-3-yl)pyridin-2-yl)-3-oxoisoindolin-5-yl)piperidine-3-carboxylic Acid], the IC50 came out at 21.7 nM.
For `COC(=O)c1ccc(F)c(-c2ccc3c(c2)C(=O)N(c2cccc(-c4nncn4C4CC4)n2)C3)c1` [Compound 101, Methyl 3-(2-(6-(4-cyclopropyl-4H-1,2,4-triazol-3-yl)pyridin-2-yl)-3-oxoisoindolin-5-yl)-4-fluorobenzoate] the value was 3.28 nM; for `CC(C)n1cnnc1-c1cccc(N2Cc3ccc(N4CCC(CC(=O)O)CC4)cc3C2=O)n1` [Compound 129, 2-(1-(2-(6-(4-Isopropyl-4H-1,2,4-triazol-3-yl)pyridin-2-yl)-3-oxoisoindolin-5-yl)piperidin-4-yl)acetic Acid], 6.6 nM.
As for `CC(C)n1cnnc1-c1cccc(N2Cc3ccc(-c4ncc5ccc(C(=O)O)cc5n4)cc3C2=O)n1` [Compound 125, 2-(2-(6-(4-Isopropyl-4H-1,2,4-triazol-3-yl)pyridin-2-yl)-3-oxoisoindolin-5-yl)quinazoline-7-carboxylic Acid], the IC50 was 7 nM.
Regarding `O=C1c2cc(-c3cccc(C4(C(=O)O)CC4)c3)ccc2CN1c1cccc(-c2nncn2C2CC2)n1` [Compound 106, 1-(3-(2-(6-(4-Cyclopropyl-4H-1,2,4-triazol-3-yl)pyridin-2-yl)-3-oxoisoindolin-5-yl)phenyl)cyclopropane-1-carboxylic Acid], the IC50 was 8.4 nM.
The result for `CC(C)n1cnnc1-c1cccc(N2Cc3ccc(-c4cccc(-c5nn[nH]n5)c4)cc3C2=O)n1` [Compound 37, 6-(3-(2H-Tetrazol-5-yl)phenyl)-2-(6-(4-isopropyl-4H-1,2,4-triazol-3-yl)pyridin-2-yl)isoindolin-1-one] reads 2.8 nM.
Regarding `COc1cc(C(=O)O)ccc1-c1ccc2c(c1)C(=O)N(c1cccc(-c3nncn3C(C)C)n1)C2` [Compound 76, 4-(2-(6-(4-Isopropyl-4H-1,2,4-triazol-3-yl)pyridin-2-yl)-3-oxoisoindolin-5-yl)-3-methoxybenzoic Acid], the IC50 came to 8.2 nM.
Take `CC(C)n1cnnc1-c1cccc(N2Cc3ccc(-c4cnc(N)c(C(=O)O)c4)cc3C2=O)n1` [Compound 117, 2-Amino-5-(2-(6-(4-isopropyl-4H-1,2,4-triazol-3-yl)pyridin-2-yl)-3-oxoisoindolin-5-yl) Nicotinic Acid]: the IC50 was determined as 1.9 nM.
For `O=C(O)CC1CCN(c2ccc3c(c2)C(=O)N(c2cccc(-c4nncn4C4CC4)n2)C3)CC1` [Compound 130, 2-(1-(2-(6-(4-Cyclopropyl-4H-1,2,4-triazol-3-yl)pyridin-2-yl)-3-oxoisoindolin-5-yl)piperidin-4-yl)acetic Acid], the IC50 worked out at 19.2 nM.
For `CC(C)n1cnnc1-c1cccc(N2Cc3ccc(-c4cc(C(=O)O)ccc4C#N)cc3C2=O)n1` [Compound 14, 4-Cyano-3-(2-(6-(4-isopropyl-4H-1,2,4-triazol-3-yl)pyridin-2-yl)-3-oxoisoindolin-5-yl) Benzoic Acid] the value was 15.6 nM.
The result for `CCc1sc(C(=O)O)cc1-c1ccc2c(c1)C(=O)N(c1cccc(-c3nncn3C(C)C)n1)C2` [Compound 62, 5-Ethyl-4-(2-(6-(4-isopropyl-4H-1,2,4-triazol-3-yl)pyridin-2-yl)-3-oxoisoindolin-5-yl)thiophene-2-carboxylic Acid] reads 6.8 nM.
The result for `CC(C)n1cnnc1-c1cccc(N2Cc3ccc(-c4cccc(CCC(=O)O)c4)cc3C2=O)n1` [Compound 107, 3-(3-(2-(6-(4-Isopropyl-4H-1,2,4-triazol-3-yl)pyridin-2-yl)-3-oxoisoindolin-5-yl)phenyl) Propanoic Acid] reads 5.2 nM.
`CC(C)n1cnnc1-c1cccc(N2Cc3ccc(-c4ccc(Cl)c(C(=O)O)c4)cc3C2=O)n1` [Compound 60, 2-Chloro-5-(2-(6-(4-isopropyl-4H-1,2,4-triazol-3-yl)pyridin-2-yl)-3-oxoisoindolin-5-yl)benzoic Acid]: the IC50 worked out at 5 nM.

The IC50 is the point on the concentration scale where inhibition reaches its midpoint.
